In patent publication US20090312280A1:

Tests used:
Ret = Ret (Homo sapiens, UniProt P07949); test: biochemical kinase screening assay
P70S6K = P70S6K (Homo sapiens, UniProt P23443); test: biochemical kinase screening assay
Fgr = Fgr (Homo sapiens, UniProt P09769); test: biochemical kinase screening assay
Bmx = Bmx (Homo sapiens, UniProt P51813); test: biochemical kinase screening assay
Lyn = Lyn (Homo sapiens, UniProt P07948); test: biochemical kinase screening assay
PAR-1Ba = PAR-1Ba (Homo sapiens, UniProt Q7KZI7); test: biochemical kinase screening assay
Blk(m) = Blk(m) (Mus musculus, UniProt P16277); test: biochemical kinase screening assay
Sequence of Blk(m) (P16277 whole entry): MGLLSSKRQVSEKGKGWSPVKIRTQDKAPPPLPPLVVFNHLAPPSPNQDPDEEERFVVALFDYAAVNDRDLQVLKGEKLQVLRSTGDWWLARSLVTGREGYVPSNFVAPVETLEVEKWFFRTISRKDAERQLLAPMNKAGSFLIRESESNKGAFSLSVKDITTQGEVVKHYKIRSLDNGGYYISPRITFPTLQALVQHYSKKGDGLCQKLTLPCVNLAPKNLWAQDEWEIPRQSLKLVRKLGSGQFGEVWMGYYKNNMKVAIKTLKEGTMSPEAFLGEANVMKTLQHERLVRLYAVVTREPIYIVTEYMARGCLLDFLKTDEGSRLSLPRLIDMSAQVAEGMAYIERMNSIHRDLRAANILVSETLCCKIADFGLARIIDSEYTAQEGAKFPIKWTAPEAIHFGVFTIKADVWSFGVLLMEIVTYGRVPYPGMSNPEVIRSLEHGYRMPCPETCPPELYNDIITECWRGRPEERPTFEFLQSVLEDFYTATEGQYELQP

PDK1 = PDK1 (Homo sapiens, UniProt O15530); test: biochemical kinase screening assay
Sequence of PDK1 (O15530 whole entry): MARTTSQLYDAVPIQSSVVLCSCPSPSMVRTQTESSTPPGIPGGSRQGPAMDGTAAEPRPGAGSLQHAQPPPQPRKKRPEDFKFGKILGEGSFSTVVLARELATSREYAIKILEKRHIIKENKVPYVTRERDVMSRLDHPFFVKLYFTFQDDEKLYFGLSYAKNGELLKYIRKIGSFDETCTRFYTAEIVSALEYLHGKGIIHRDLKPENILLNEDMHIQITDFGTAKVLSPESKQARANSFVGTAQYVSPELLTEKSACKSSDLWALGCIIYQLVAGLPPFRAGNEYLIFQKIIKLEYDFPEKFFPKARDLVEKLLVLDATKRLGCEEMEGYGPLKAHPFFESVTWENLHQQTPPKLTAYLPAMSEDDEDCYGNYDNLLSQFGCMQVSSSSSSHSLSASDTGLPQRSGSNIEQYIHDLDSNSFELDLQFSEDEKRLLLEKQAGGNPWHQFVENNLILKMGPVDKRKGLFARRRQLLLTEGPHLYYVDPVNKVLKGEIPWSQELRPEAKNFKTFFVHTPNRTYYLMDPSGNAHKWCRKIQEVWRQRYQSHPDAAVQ

Fyn = Fyn (Homo sapiens, UniProt P06241); test: biochemical kinase screening assay
Sequence of Fyn (P06241 whole entry): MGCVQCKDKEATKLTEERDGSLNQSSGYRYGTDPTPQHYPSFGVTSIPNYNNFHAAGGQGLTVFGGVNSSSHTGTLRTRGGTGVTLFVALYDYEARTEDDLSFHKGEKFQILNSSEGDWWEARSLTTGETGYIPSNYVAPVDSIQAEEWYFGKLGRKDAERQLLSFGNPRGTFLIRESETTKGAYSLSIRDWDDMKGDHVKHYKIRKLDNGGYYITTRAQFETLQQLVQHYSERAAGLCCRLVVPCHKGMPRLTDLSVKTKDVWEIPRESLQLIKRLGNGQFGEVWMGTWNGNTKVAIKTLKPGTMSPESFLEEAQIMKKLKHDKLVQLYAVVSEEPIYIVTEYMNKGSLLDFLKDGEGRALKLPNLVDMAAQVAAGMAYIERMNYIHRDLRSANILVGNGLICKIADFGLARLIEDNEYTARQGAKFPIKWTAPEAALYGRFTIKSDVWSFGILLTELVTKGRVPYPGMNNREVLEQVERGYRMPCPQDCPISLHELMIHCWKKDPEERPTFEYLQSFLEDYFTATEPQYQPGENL

[1] = test system: gemcitabine induced S-Phase arrest; test: flow cytometry cell cycle / apoptosis analysis; assay type: cell-based
HT29 (Colon) = test: cell survival / MTT combination cytotoxicity; assay type: cell-based, human; settings: Homo sapiens, HT-29
MDA-MB-231 (Breast) = test: cell survival / MTT combination cytotoxicity; assay type: cell-based, human; settings: Homo sapiens
A431 tumor xenografts = test: in vivo radio sensitizing study, A431 xenograft; set-up: species or system mice; settings: for Normalized Tumor Growth Delay: versus drug alone; for Tumor Growth Delay: versus vehicle control
Source text: Female Balb/c nude mice (Age 6 weeks) were inoculated on the right hind limb with 3×10^6 A431 cells in PBS and allowed the tumor to grow to a mean tumor volume ˜100 mm^3. The mice were randomized into groups of 10 animals each group.
The unanaesthetized mice were then subjected to radiation. Radiation was delivered using a 6 MeV high dose rate electron beam from a Varian 2100 Linear Accelerator (Palo Alto, Calif.). The dose rate used was 20 Gy/min. The depth-dose characteristics of the electron beam were such that dose uniformity to within ±5 % was obtained over a 10 mm depth of tissue. This was sufficient to cover all tumor irradiated. The tumor was irradiated though a 25 mm square collimator cut from 3 mm thick lead sheet attached to a 6 mm thick Perspex sheet. The separation between the tumor and the lower (Perspex) side of the surface collimator was approximately 25 mm. The apparatus was supported on a plate heated to 37° C. in order to reduce the effects of heat loss in the mice. Radiation doses were calculated and delivered by a senior radiation physicist. Radiotherapy was given as described above on Days 0-4 as 2, 3 or 4 Gy daily fractions.
The solution was prepared immediately prior to dosing and (15 mg/kg) was administered by intraperitoneal injection at 15 mg/kg on Days 0-4 immediately following radiotherapy. The above solution that contains no Compound 1 is considered as the “drug vehicle” or “vehicle”. Drug vehicle was administered at 0.1 ml/10 g body weight on the same schedule.
Each group of mice were treated with Compound 1 only, radiation only, or the combination of Compound 1 and radiation. Animals were sacrificed when Tumor Volume Ratio (TVR) reached or exceeded 4 or if the mouse had lost more than 15% of its baseline body weight at Day 0. Tumor Volume Ratio is defined as the ratio between the tumors volume at a particular time and the baseline tumor volume, which is the tumor volume at Day 0.
Tumor volume was measured three times weekly from day 0 to day 11 and even further to day 23. Tumor volume was measured using electronic calipers and calculated as length/2×width^2. The mean tumor volume was calculated for each group of mice.
Tumor growth delay is defined as the median time in days for tumors to reach a TVR of 4 minus time for vehicle control tumors to reach the same size. Normalized growth delay is defined as the time in days for tumors in combination treated mice to reach TVR of 4 minus time in days for tumors in drug alone treated mice to reach the same size. Enhancement ratio is defined as normalized tumor growth delay in mice treated with drug and radiation divided by tumor growth delay in mice treated with radiation alone.

Lck = Lck (Homo sapiens, UniProt P06239); test: biochemical
Sequence of Lck (P06239 whole entry): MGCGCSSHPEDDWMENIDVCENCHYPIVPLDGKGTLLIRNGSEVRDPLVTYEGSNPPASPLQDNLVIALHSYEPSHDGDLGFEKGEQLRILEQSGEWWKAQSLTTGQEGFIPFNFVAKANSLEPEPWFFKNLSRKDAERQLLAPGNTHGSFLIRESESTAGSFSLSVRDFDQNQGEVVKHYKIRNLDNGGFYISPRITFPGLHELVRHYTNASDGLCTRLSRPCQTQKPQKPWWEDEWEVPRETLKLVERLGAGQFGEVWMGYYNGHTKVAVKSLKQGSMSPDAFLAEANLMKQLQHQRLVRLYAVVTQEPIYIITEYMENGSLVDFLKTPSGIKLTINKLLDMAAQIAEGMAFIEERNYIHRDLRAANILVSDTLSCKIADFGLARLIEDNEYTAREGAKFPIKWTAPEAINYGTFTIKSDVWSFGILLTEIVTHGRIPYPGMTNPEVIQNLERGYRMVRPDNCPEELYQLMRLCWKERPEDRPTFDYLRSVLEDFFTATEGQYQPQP

[2] = Compound 1 15 mg/kg IP plus Radiation (2 Gy × 5)
[3] = Compound 1 15 mg/kg IP plus Radiation (3 Gy × 5)
[4] = Compound 1 15 mg/kg IP plus Radiation (4 Gy × 5)
[5] = Compound 1 alone, 15 mg/kg IP Days 0-4

Sequence of Lyn (P07948 whole entry): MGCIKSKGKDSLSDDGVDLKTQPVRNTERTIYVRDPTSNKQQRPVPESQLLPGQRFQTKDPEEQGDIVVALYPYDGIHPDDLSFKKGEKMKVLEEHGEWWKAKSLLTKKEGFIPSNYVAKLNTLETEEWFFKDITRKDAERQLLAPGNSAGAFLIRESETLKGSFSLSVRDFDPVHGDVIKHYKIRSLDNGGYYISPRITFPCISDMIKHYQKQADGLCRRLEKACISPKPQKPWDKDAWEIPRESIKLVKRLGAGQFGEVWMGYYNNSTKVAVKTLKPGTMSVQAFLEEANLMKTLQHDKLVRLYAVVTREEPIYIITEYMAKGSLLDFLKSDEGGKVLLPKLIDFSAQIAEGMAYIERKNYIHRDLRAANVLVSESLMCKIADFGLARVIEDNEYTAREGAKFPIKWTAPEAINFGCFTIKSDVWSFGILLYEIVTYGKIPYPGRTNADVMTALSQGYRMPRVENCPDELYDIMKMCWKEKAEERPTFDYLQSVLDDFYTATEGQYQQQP
Sequence of Ret (P07949 29-1114): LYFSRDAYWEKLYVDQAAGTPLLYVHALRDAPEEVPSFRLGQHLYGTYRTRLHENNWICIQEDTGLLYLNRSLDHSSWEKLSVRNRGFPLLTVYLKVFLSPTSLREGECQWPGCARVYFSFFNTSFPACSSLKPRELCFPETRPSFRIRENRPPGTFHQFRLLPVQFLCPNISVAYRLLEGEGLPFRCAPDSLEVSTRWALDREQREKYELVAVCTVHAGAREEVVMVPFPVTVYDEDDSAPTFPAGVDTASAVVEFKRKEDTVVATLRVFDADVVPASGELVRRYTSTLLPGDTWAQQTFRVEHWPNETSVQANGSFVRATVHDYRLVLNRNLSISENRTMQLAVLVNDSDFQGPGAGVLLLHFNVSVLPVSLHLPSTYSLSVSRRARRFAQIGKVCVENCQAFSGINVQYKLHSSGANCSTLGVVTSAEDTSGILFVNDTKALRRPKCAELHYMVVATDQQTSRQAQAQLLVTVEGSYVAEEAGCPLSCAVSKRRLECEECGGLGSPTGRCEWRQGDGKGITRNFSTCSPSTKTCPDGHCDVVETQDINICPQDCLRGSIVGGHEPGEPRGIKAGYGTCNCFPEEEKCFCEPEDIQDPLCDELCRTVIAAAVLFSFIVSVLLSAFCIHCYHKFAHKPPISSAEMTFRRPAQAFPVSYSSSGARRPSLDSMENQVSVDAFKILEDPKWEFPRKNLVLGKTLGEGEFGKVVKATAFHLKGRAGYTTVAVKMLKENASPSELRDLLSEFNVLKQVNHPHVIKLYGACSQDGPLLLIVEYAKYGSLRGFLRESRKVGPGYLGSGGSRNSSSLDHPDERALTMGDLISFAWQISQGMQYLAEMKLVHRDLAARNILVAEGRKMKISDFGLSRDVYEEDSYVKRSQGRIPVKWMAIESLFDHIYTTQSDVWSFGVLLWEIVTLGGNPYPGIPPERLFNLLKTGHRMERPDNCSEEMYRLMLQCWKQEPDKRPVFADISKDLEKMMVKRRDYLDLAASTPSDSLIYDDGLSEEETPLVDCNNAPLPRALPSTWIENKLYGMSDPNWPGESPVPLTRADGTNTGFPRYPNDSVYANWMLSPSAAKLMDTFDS
Sequence of P70S6K (P23443 whole entry): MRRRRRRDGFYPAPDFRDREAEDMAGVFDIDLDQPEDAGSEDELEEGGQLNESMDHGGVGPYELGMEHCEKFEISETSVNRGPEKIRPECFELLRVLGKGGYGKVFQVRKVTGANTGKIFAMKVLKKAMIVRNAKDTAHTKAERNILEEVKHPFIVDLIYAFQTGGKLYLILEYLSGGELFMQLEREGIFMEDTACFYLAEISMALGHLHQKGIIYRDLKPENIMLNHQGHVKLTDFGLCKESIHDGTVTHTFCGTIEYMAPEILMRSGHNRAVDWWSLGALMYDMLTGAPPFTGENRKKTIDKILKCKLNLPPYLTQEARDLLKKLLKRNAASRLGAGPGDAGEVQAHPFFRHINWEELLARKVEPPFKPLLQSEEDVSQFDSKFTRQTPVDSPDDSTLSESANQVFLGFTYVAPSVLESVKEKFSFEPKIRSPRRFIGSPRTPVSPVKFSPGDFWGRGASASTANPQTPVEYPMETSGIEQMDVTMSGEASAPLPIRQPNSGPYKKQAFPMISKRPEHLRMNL
Sequence of Fgr (P09769 whole entry): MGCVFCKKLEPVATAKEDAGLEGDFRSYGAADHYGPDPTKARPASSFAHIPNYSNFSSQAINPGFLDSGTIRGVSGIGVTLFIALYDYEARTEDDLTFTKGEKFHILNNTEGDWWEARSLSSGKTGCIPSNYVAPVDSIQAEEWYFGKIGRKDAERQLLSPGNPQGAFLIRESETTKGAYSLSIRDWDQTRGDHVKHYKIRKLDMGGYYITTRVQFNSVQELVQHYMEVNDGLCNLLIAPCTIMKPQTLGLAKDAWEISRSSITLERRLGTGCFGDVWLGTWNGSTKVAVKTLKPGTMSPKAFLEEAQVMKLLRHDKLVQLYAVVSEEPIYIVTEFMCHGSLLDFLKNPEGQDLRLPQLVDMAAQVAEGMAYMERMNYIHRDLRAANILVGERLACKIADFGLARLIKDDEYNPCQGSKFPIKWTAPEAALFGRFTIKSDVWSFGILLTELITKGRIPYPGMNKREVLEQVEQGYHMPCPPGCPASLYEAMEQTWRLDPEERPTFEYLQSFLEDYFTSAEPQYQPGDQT

## Cn1cc(-c2[nH]c3cc(NC(=O)[C@H](N)C4CCCCC4)cc4c3c2C=NNC4=O)cn1 [Compound 1]
Ret
  IC50: 39 nM
P70S6K
  IC50: 61 nM
Fgr
  IC50: 153 nM
Bmx
  IC50: 233 nM
Lyn
  IC50: 266 nM
PAR-1Ba
  IC50: 350 nM
Blk(m)
  IC50: 365 nM
PDK1
  IC50: 439 nM
Fyn
  IC50: 953 nM
[1]; combination with gemcitabine
  S-Phase arrest by flow cytometry: abrogation of gemcitabine induced S-Phase arrest
[1]; gemcitabine + Compound 1 compared with gemcitabine alone
  apoptotic cells by flow cytometry: significant increase in apoptotic cells
[1]; in the absence of DNA damage
  effect on cell cycle: no effect on cell cycle
HT29 (Colon)
  IC50: 1800 nM
MDA-MB-231 (Breast)
  IC50: 1400 nM
A431 tumor xenografts; [2]
  Median time to TVR = 4: 11.1 days
  Normalized Tumor Growth Delay: 3.75 days
  Tumor Growth Delay: 2.7 days
A431 tumor xenografts; [3]
  Median time to TVR = 4: 15.1 days
  Normalized Tumor Growth Delay: 7.75 days
  Tumor Growth Delay: 6.7 days
A431 tumor xenografts; [4]
  Median time to TVR = 4: 13 days
  Normalized Tumor Growth Delay: 5.65 days
  Tumor Growth Delay: 4.6 days
A431 tumor xenografts; [5]
  Median time to TVR = 4: 7.35 days
  Tumor Growth Delay: -1.05 days
A431 tumor xenografts; day 0, 2 Gy + Cmpd 1 15 mg/kg IP, Days 0-4
  mean tumor volume: 94.51 mm^3
A431 tumor xenografts; day 0, 3 Gy + Cmpd 1 15 mg/kg IP, Days 0-4
  mean tumor volume: 104.26 mm^3
A431 tumor xenografts; day 0, 4 Gy + Cmpd 1 15 mg/kg IP, Days 0-4
  mean tumor volume: 101.97 mm^3
A431 tumor xenografts; day 0, Cmpd 1 only, 15 mg/kg IP Days 0-4
  mean tumor volume: 104.23 mm^3
A431 tumor xenografts; day 2, 2 Gy + Cmpd 1 15 mg/kg IP, Days 0-4
  mean tumor volume: 145.53 mm^3
A431 tumor xenografts; day 2, 3 Gy + Cmpd 1 15 mg/kg IP, Days 0-4
  mean tumor volume: 149.88 mm^3
A431 tumor xenografts; day 2, 4 Gy + Cmpd 1 15 mg/kg IP, Days 0-4
  mean tumor volume: 150.81 mm^3
A431 tumor xenografts; day 2, Cmpd 1 only, 15 mg/kg IP Days 0-4
  mean tumor volume: 158.07 mm^3
A431 tumor xenografts; day 4, 2 Gy + Cmpd 1 15 mg/kg IP, Days 0-4
  mean tumor volume: 198.57 mm^3
A431 tumor xenografts; day 4, 3 Gy + Cmpd 1 15 mg/kg IP, Days 0-4
  mean tumor volume: 210.23 mm^3
A431 tumor xenografts; day 4, 4 Gy + Cmpd 1 15 mg/kg IP, Days 0-4
  mean tumor volume: 209.44 mm^3
A431 tumor xenografts; day 4, Cmpd 1 only, 15 mg/kg IP Days 0-4
  mean tumor volume: 242.46 mm^3
A431 tumor xenografts; day 7, 2 Gy + Cmpd 1 15 mg/kg IP, Days 0-4
  mean tumor volume: 255.23 mm^3
A431 tumor xenografts; day 7, 3 Gy + Cmpd 1 15 mg/kg IP, Days 0-4
  mean tumor volume: 200.48 mm^3
A431 tumor xenografts; day 7, 4 Gy + Cmpd 1 15 mg/kg IP, Days 0-4
  mean tumor volume: 307.93 mm^3
A431 tumor xenografts; day 7, Cmpd 1 only, 15 mg/kg IP Days 0-4
  mean tumor volume: 418.28 mm^3
A431 tumor xenografts; day 9, 2 Gy + Cmpd 1 15 mg/kg IP, Days 0-4
  mean tumor volume: 339.76 mm^3
A431 tumor xenografts; day 9, 3 Gy + Cmpd 1 15 mg/kg IP, Days 0-4
  mean tumor volume: 164.45 mm^3
A431 tumor xenografts; day 9, 4 Gy + Cmpd 1 15 mg/kg IP, Days 0-4
  mean tumor volume: 294.63 mm^3
A431 tumor xenografts; day 9, Cmpd 1 only, 15 mg/kg IP Days 0-4
  mean tumor volume: 580.35 mm^3
A431 tumor xenografts; day 11, 2 Gy + Cmpd 1 15 mg/kg IP, Days 0-4
  mean tumor volume: 401.96 mm^3
A431 tumor xenografts; day 11, 3 Gy + Cmpd 1 15 mg/kg IP, Days 0-4
  mean tumor volume: 210.35 mm^3
A431 tumor xenografts; day 11, 4 Gy + Cmpd 1 15 mg/kg IP, Days 0-4
  mean tumor volume: 487.78 mm^3
A431 tumor xenografts; day 11, Cmpd 1 only, 15 mg/kg IP Days 0-4
  mean tumor volume: 790.82 mm^3
A431 tumor xenografts; day 14, 2 Gy + Cmpd 1 15 mg/kg IP, Days 0-4
  mean tumor volume: 644.80 mm^3
A431 tumor xenografts; day 14, 3 Gy + Cmpd 1 15 mg/kg IP, Days 0-4
  mean tumor volume: 283.51 mm^3
A431 tumor xenografts; day 14, 4 Gy + Cmpd 1 15 mg/kg IP, Days 0-4
  mean tumor volume: 815.01 mm^3
A431 tumor xenografts; day 16, 3 Gy + Cmpd 1 15 mg/kg IP, Days 0-4
  mean tumor volume: 408.01 mm^3
A431 tumor xenografts; day 18, 3 Gy + Cmpd 1 15 mg/kg IP, Days 0-4
  mean tumor volume: 433.83 mm^3
A431 tumor xenografts; day 21, 3 Gy + Cmpd 1 15 mg/kg IP, Days 0-4
  mean tumor volume: 395.17 mm^3
A431 tumor xenografts; day 23, 3 Gy + Cmpd 1 15 mg/kg IP, Days 0-4
  mean tumor volume: 513.31 mm^3
Lck
  IC50: 396 nM
